pEC50: −log10 of the molar value. Read-outs that look alike come from different tables or passages of the source.
Legend:
HCV genotype 1b replicon = assay: HCV replicon assay, genotype 1b replicon EC50; assay type: cell-based, Hepatitis C virus; conditions: Hepatitis C virus, genotype 1b replicon, read-out: EC50 [gt-1b]
Method in brief: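 Readout was replicon RNA copy number, by 32P-probe protection or TaqMan normalized to cellular cyclophilin A RNA, or luciferase activity for luciferase:Neo^r fusion lines. Cells were exposed to serially diluted compound for 24-48 hours without G418, then washed and lysed. EC50 derived from four-parameter fit relative to DMSO.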

[1] = target: HCV NS3/4A protease genotype 1b (Hepatitis C virus genotype 1b, UniProt P26663); assay: HCV NS3/4A protease time-resolved fluorescence (TRF) assay, Ki against genotype 1b; assay type: biochemical; conditions: IC50 [gt-1b] (nM), NS3/4A genotype 1b, enzyme 0.2 nM
Method in brief: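 Ki was converted from fitted IC50 using IC50=Ki(1+[S]/KM) and 25 nM substrate. Protease (genotype 1b 0.2 nM, A156T 0.4 nM, 3a 0.025 nM) and compound were pre-mixed 30 min in pH 7.5 HEPES/NaCl/glycerol/DTT buffer. Cleavage then proceeded 2.5 h at room temperature, detected by time-resolved europium fluorescence (340/615 nm).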

Row | SMILES | pEC50 (HCV genotype 1b replicon) | IC50 [1] | pEC50 (HCV genotype 1b replicon; K+ salt) | IC50 ([1]; K+ salt) | pEC50 (HCV genotype 1b replicon; HCOOH salt) | IC50 ([1]; HCOOH salt)
1 | Cc1nc2ccccc2c2c1O[C@]1(CC2)C[C@H]2C(=O)N[C@]3(C(=O)NS(=O)(=O)C4(C)CC4)C[C@H]3/C=C\CCCCC[C@H](NC(=O)OC3C[C@H]4C=C[C@@H]3C4)C(=O)N2C1 (stereo partly drawn) [Example 257, (1S,4S)-bicyclo[2.2.1]hept-5-en-2-yl [(2R,6S,12Z,13aS,14aR,16aS)-5′-methyl-14a-{[(1-methylcyclopropyl)sulfonyl]carbamoyl}-5,16-dioxo-1,1′,2′,5,6,7,8,9,10,11,13a,14,14a,15,16,16a-hexadecahydrospiro[cyclopropa[e]pyrrolo[1,2-a][1,4]diazacyclopentadecine-2,3′-pyrano[2,3-c]quinolin]-6-yl]carbamate] | 8.49 | 0.018 nM | – | – | – | –
2 | Cc1nc2ccccc2c2c1O[C@]1(CC2)C[C@H]2C(=O)N[C@]3(C(=O)NS(=O)(=O)C4(C)CC4)C[C@H]3/C=C\CCCCC[C@H](NC(=O)OC(C(F)(F)F)C(F)(F)F)C(=O)N2C1 [Example 258, 1,1,1,3,3,3-hexafluoropropan-2-yl [(2R,6S,12Z,13aS,14aR,16aS)-5′-methyl-14a-{[(1-methylcyclopropyl)sulfonyl]carbamoyl}-5,16-dioxo-1,1′,2′,5,6,7,8,9,10,11,13a,14,14a,15,16,16a-hexadecahydrospiro[cyclopropa[e]pyrrolo[1,2-a][1,4]diazacyclopentadecine-2,3′-pyrano[2,3-c]quinolin]-6-yl]carbamate] | 6.14 | 0.022 nM | – | – | – | –
3 | COc1ccc2nc(C)c3c(c2c1)C(F)(F)C[C@]1(C[C@H]2C(=O)N[C@]4(C(=O)NS(=O)(=O)C5(C)CC5)C[C@H]4/C=C\CCCCC[C@H](NC(=O)OC4CCCC4)C(=O)N2C1)O3 [Example 260, cyclopentyl [(2S,6S,12Z,13aS,14aR,16aS)-1′,1′-difluoro-9′-methoxy-5′-methyl-14a-{[(1-methylcyclopropyl)sulfonyl]carbamoyl}-5,16-dioxo-1,1′,2′,5,6,7,8,9,10,11,13a,14,14a,15,16,16a-hexadecahydrospiro[cyclopropa[e]pyrrolo[1,2-a][1,4]diazacyclopentadecine-2,3′-pyrano[2,3-c]quinolin]-6-yl]carbamate] | 8.28 | 0.006 nM | – | – | – | –
4 | COc1ccc2nc(C)c3c(c2c1)CC[C@]1(C[C@H]2C(=O)N[C@]4(C(=O)NS(=O)(=O)C5(C)CC5)C[C@H]4/C=C\CCCCC[C@H](NC(=O)OC4CC5CC(=O)OC5C4)C(=O)N2C1)O3 (stereo partly drawn) [Example 261, 2-oxohexahydro-2H-cyclopenta[b]furan-5-yl [(2R,6S,12Z,13aS,14aR,16aS)-9′-methoxy-5′-methyl-14a-{[(1-methylcyclopropyl)sulfonyl]carbamoyl}-5,16-dioxo-1,1′,2′,5,6,7,8,9,10,11,13a,14,14a,15,16,16a-hexadecahydrospiro[cyclopropa[e]pyrrolo[1,2-a][1,4]diazacyclopentadecine-2,3′-pyrano[2,3-c]quinolin]-6-yl]carbamate] | 6.72 | 0.008 nM | – | – | – | –
5 | COc1ccc2nc(C)c3c(c2c1)C(F)(F)C[C@]1(C[C@H]2C(=O)N[C@]4(C(=O)NS(=O)(=O)C5(C)CC5)C[C@H]4/C=C\CCCCC[C@H](NC(=O)O[C@H](C)C(C)C)C(=O)N2C1)O3 [Example 263, (2R)-3-methylbutan-2-yl [(2S,6S,12Z,13aS,14aR,16aS)-1′,1′-difluoro-9′-methoxy-5′-methyl-14a-{[(1-methylcyclopropyl)sulfonyl]carbamoyl}-5,16-dioxo-1,1′,2′,5,6,7,8,9,10,11,13a,14,14a,15,16,16a-hexadecahydrospiro[cyclopropa[e]pyrrolo[1,2-a][1,4]diazacyclopentadecine-2,3′-pyrano[2,3-c]quinolin]-6-yl]carbamate] | – | – | 8.28 | 0.007 nM | – | –
6 | COc1ccc2nc(C)c3c(c2c1)C(F)(F)C[C@]1(C[C@H]2C(=O)N[C@]4(C(=O)NS(=O)(=O)C5(C)CC5)C[C@H]4/C=C\CCCCC[C@H](NC(=O)O[C@@H](C)C(C)C)C(=O)N2C1)O3 [Example 264, (2S)-3-methylbutan-2-yl [(2S,6S,12Z,13aS,14aR,16aS)-1′,1′-difluoro-9′-methoxy-5′-methyl-14a-{[(1-methylcyclopropyl)sulfonyl]carbamoyl}-5,16-dioxo-1,1′,2′,5,6,7,8,9,10,11,13a,14,14a,15,16,16a-hexadecahydrospiro[cyclopropa[e]pyrrolo[1,2-a][1,4]diazacyclopentadecine-2,3′-pyrano[2,3-c]quinolin]-6-yl]carbamate] | – | – | 8.37 | 0.013 nM | – | –
7 | COc1ccc2nc(C)c3c(c2c1)C(F)(F)C[C@]1(C[C@H]2C(=O)N[C@]4(C(=O)NS(=O)(=O)C5(C)CC5)C[C@H]4/C=C\CCCCC[C@H](NC(=O)OC(C)(C)C(F)(F)F)C(=O)N2C1)O3 [Example 265, 1,1,1-trifluoro-2-methylpropan-2-yl [(2S,6S,12Z,13aS,14aR,16aS)-1′,1′-difluoro-9′-methoxy-5′-methyl-14a-{[(1-methylcyclopropyl)sulfonyl]carbamoyl}-5,16-dioxo-1,1′,2′,5,6,7,8,9,10,11,13a,14,14a,15,16,16a-hexadecahydrospiro[cyclopropa[e]pyrrolo[1,2-a][1,4]diazacyclopentadecine-2,3′-pyrano[2,3-c]quinolin]-6-yl]carbamate] | – | – | 8.48 | 0.007 nM | – | –
8 | Cc1nc2ccc(OC(F)F)cc2c2c1O[C@]1(CC2)C[C@H]2C(=O)N[C@]3(C(=O)NS(=O)(=O)C4(C)CC4)C[C@H]3/C=C\CCCCC[C@H](NC(=O)OCC(C)C)C(=O)N2C1 [Example 267, 2-methylpropyl [(2R,6S,12Z,13aS,14aR,16aS)-9′-(difluoromethoxy)-5′-methyl-14a-{[(1-methylcyclopropyl)sulfonyl]carbamoyl}-5,16-dioxo-1,1′,2′,5,6,7,8,9,10,11,13a,14,14a,15,16,16a-hexadecahydrospiro[cyclopropa[e]pyrrolo[1,2-a][1,4]diazacyclopentadecine-2,3′-pyrano[2,3-c]quinolin]-6-yl]carbamate] | – | – | 8.45 | 0.006 nM | – | –
9 | Cc1nc2ccc(OC(F)F)cc2c2c1O[C@]1(CC2)C[C@H]2C(=O)N[C@]3(C(=O)NS(=O)(=O)C4(C)CC4)C[C@H]3/C=C\CCCCC[C@H](NC(=O)OC3CCCC3)C(=O)N2C1 [Example 268, cyclopentyl [(2R,6S,12Z,13aS,14aR,16aS)-9′-(difluoromethoxy)-5′-methyl-14a-{[(1-methylcyclopropyl)sulfonyl]carbamoyl}-5,16-dioxo-1,1′,2′,5,6,7,8,9,10,11,13a,14,14a,15,16,16a-hexadecahydrospiro[cyclopropa[e]pyrrolo[1,2-a][1,4]diazacyclopentadecine-2,3′-pyrano[2,3-c]quinolin]-6-yl]carbamate] | – | – | 8.39 | 0.003 nM | – | –
10 | COc1ccc2c3c(c(C4CC4)nc2c1)O[C@]1(CC3)C[C@H]2C(=O)N[C@]3(C(=O)NS(=O)(=O)C4(C)CC4)C[C@H]3/C=C\CCCCC[C@H](NC(=O)CC(C)(C)C)C(=O)N2C1 [Example 269, (2R,6S,12Z,13aS,14aR,16a5)-5′-cyclopropyl-6-[(3,3-dimethylbutanoyl)amino]-8′-methoxy-N-[(1-methylcyclopropyl)sulfonyl]-5,16-dioxo-1,1′,2′,6,7,8,9,10,11,13a,14,15,16,16a-tetradecahydrospiro[cyclopropa[e]pyrrolo[1,2-a][1,4]diazacyclopentadecine-2,3′-pyrano[2,3-c]quinoline]-14a(5H)-carboxamide] | – | – | – | – | 7.92 | 0.337 nM
11 | COc1ccc2c3c(c(C4CC4)nc2c1)O[C@]1(CC3)C[C@H]2C(=O)N[C@]3(C(=O)NS(=O)(=O)C4(C)CC4)C[C@H]3/C=C\CCCCC[C@H](NC(=O)CC3CCCC3)C(=O)N2C1 [Example 270, (2R,6S,12Z,13aS,14aR,16aS)-6-[(cyclopentylacetyl)amino]-5′-cyclopropyl-8′-methoxy-N-[(1-methylcyclopropyl)sulfonyl]-5,16-dioxo-1,1′,2′,6,7,8,9,10,11,13a,14,15,16,16a-tetradecahydrospiro[cyclopropa[e]pyrrolo[1,2-a][1,4]diazacyclopentadecine-2,3′-pyrano[2,3-c]quinoline]-14a(5H)-carboxamide] | – | – | – | – | 7.62 | 0.044 nM
12 | CCCOC(=O)N[C@H]1CCCCC/C=C\[C@@H]2C[C@@]2(C(=O)NS(=O)(=O)C2(C)CC2)NC(=O)[C@@H]2C[C@]3(CCc4c(c(C5CC5)nc5cc(OC)ccc45)O3)CN2C1=O [Example 271, propyl [(2R,6S,12Z,13aS,14aR,16aS)-5′-cyclopropyl-8′-methoxy-14a-{[(1-methylcyclopropyl)sulfonyl]carbamoyl}-5,16-dioxo-1,1′,2′,5,6,7,8,9,10,11,13a,14,14a,15,16,16a-hexadecahydrospiro[cyclopropa[e]pyrrolo[1,2-a][1,4]diazacyclopentadecine-2,3′-pyrano[2,3-c]quinolin]-6-yl]carbamate] | – | – | – | – | 8.23 | 0.031 nM
13 | CCCCOC(=O)N[C@H]1CCCCC/C=C\[C@@H]2C[C@@]2(C(=O)NS(=O)(=O)C2(C)CC2)NC(=O)[C@@H]2C[C@]3(CCc4c(c(C5CC5)nc5cc(OC)ccc45)O3)CN2C1=O [Example 272, butyl [(2R,6S,12Z,13aS,14aR,16aS)-5′-cyclopropyl-8′-methoxy-14a-{[(1-methylcyclopropyl)sulfonyl]carbamoyl}-5,16-dioxo-1,1′,2′,5,6,7,8,9,10,11,13a,14,14a,15,16,16a-hexadecahydrospiro[cyclopropa[e]pyrrolo[1,2-a][1,4]diazacyclopentadecine-2,3′-pyrano[2,3-c]quinolin]-6-yl]carbamate] | – | – | – | – | 7.95 | 0.116 nM

From patent US8987195B2 (priority 2012, dated 2015)
